# In patent publication US20190192458A1, “THERAPEUTIC/PROPHYLACTIC AGENT FOR GRAFT-VERSUS-HOST DISEASE, FIBROCYTE INVASION INHIBITOR, AND INHIBITOR AGAINST TEAR REDUCTION AND REDUCTION IN GOBLET CELLS” (KEIO UNIVERSITY, priority 2016, published 2019):
# Assays:
# Type in all cases: in vivo, mouse
# [1] = system: MCP-1, TNF-α, and IFN-γ in blood sera; assay: ELISA of inflammation markers in blood sera; details: ELISA 28 days after bone marrow transplantation; PBA-treated vs vehicle-treated mice, n=4, P<0.05
# Method: (§1) Bone marrow transplantation was performed as described in the above section “Bone marrow transplantation,” and the resulting allogeneic bone marrow transplantation recipient mice were divided into two groups. One group was treated with intraperitoneal injection of PBA (10 mg/kg) (Aldrich) while the other was treated with intraperitoneal injection of a solvent vehicle⋅phosphate buffered saline (PBS) (pH 7.4). The allogeneic bone marrow transplantation recipients received once-daily administration of PBA or the solvent vehicle from Day 10 to Day 27 after bone marrow transplantation. They were sacrificed on Day 28 after bone marrow transplantation.
# Blood samples were withdrawn from PBA-treated mice and vehicle-treated mice, and centrifuged at 4000 rpm for 10 minutes. The levels of MCP-1, tumor necrosis factor-α (TNF-α), and interferon-γ (IFN-γ) in the resulting blood sera were measured using ELISA kits (Becton Dickinson). These assays were performed according to the protocol recommended by manufacturer Becton Dickinson.
# [2] = system: cGVHD target organs; assay: Histological observation of cGVHD target organs (HE, Mallory, CD45 immunostaining, electron microscopy, PAS)
# Method: as §1
# cGVHD-affected organs (exorbital lacrimal gland, proximal portion of the small intestine, dorsal skin, liver, salivary gland, lung, large intestine, and eyes) were analyzed herein.
# The exorbital lacrimal gland, the proximal part of the small intestine, dorsal skin, the liver, the salivary gland, the lung, the large intestine, and the eyes were collected from transplant recipients at 3 or 4 weeks after bone marrow transplantation. Subsequently, these samples were fixed with 10% neutral buffered formalin, and then each embedded in paraffin. The resulting paraffin blocks were each cut into 7-μm thick sections, and then stained with • (1) hematoxylin and eosin; • (2) Malory trichrome staining (Hopwood J, Fixation and fixtative. In: Bancroft J D, Stevens A, eds., Theory and Practice of Histological Techniques, 4th ed, Edinburgh: Churchill-Livingstone, 1996:23-46; Anderson G, Gordon K, Tissue processing, microtomy and paraffin sections. In: Bancroft J D, Stevens A, eds. T. Theory and Practice of Histological Techniques, 4th ed, Edinburgh: Churchill-Livingstone, 1996:47-68); and • (3) antibody.
# For immunohistochemical assay, paraffin was first removed, and antigens were then collected by either one of the following two antigen collecting methods. • (A) For staining sections with CD45 antibody (30-F11, BD Pharmingen), the sections were immersed in an antigen retrieval solution (Target Retrieval Solution; Dako), and then boiled for 10 minutes in a microwave oven. • (B) For multistaining with CD68 (FA-11, Abd Serotec) and CHOP (F-168, Santa Cruz Biotechnology, Inc.), sections were washed with an antigen retrieval solution (HistoVT One; Nacalai Tesque, Inc.), and then heated in a water bath at 90° C. for 40 minutes. Next, the sections were blocked with 10% normal goat blood serum, and antigens in the tissue sections were then allowed to react with the primary antibodies at 4° C. overnight. Subsequently, the sections were treated with fluorophore-labelled secondary antibodies at room temperature (for example, 1 to 30° C.) for 45 minutes, and then mounted with an anti-fading mounting medium (Fluorescent Mounting Medium; Dako).
# Fluorescence images were captured under an LSM confocal microscope (Carl Zeiss). For counting CD45^+ cells, 5 randomly selected regions per section were photographed at a magnification of ×200, and the number of CD45^+ cells in each image was then determined. As secondary antibodies, used were goat anti-mouse IgG (H+L) secondary antibody conjugated with Alexa Fluor 488 (Molecular Probes) and goat anti-rat IgG (H+L) secondary antibody conjugated with Alexa Fluor 568 (Molecular Probes). For isotype controls, rat IgG2b, κ (eB149/10H5, eBioscience, Inc.), rat IgG2a (54447, R&D Systems, Inc.), and rabbit IgG (Cell Signaling Technology, Inc.) were used for CD45, CD68, and CHOP, respectively.
# Transmission electron microscopy was performed in accordance with a standard protocol. Tissues were collected from a mouse lacrimal gland and small intestine, and immediately fixed with 2.5% glutaraldehyde in 0.1 M phosphate buffer (pH 7.4) at 4° C. for 4 hours, and then washed 3 times with 0.1 M phosphate buffer. Subsequently, the samples were fixed again with 2% osmium tetroxide, and dehydrated with a gradient series of ethanol and 100% propylene oxide, and then embedded in epoxy resin. […]
# [3] = system: cGVHD model mice (B10.D2 to BALB/c bone marrow transplantation); assay: Survival and change in weight of PBA-treated allogeneic bone marrow transplantation recipient mice; details: PBA 10 mg/kg i.p. once daily Day 10 to Day 27 after allogeneic bone marrow transplantation
# Method: Bone marrow transplantation was performed on model mice of cGVHD (Zhang Y, McCormick L L, Desai S R, Wu C, Gilliam A C, Murine Sclerodermatous Graft-Versus-Host Disease, a Model for Human Scleroderma: Cutaneous Cytokines, Chemokines, and Immune Cell Activation. The Journal of Immunology, 2002; 168: 3088-3098). When a donor was a B10.D2 mouse and a recipient was a BALB/c mouse, bone marrow transplantation was allogeneic, producing a model mouse of cGVHD. […] Recipients were irradiated at 700 cGy before bone marrow transplantation to perform lethal irradiation with a Gammacel 137 Cs source (Hitachi Medical Corp.). The recipient mice were each administered via tail vein with a suspension containing 1×10^6 donor bone marrow cells and 2×10^6 donor spleen cells.
# Bone marrow transplantation was performed as described in the above section “Bone marrow transplantation,” and the resulting allogeneic bone marrow transplantation recipient mice were divided into two groups. One group was treated with intraperitoneal injection of PBA (10 mg/kg) (Aldrich) while the other was treated with intraperitoneal injection of a solvent vehicle⋅phosphate buffered saline (PBS) (pH 7.4). […]
# Statistical significance was determined by the Mann-Whitney U test (which tests difference between two groups that have no correspondence). […]
# [4] = PBA-treated vs vehicle-treated eye, FIG. 4-1A
structure (smiles),measurement,setting,value
"O=C(O)CCCc1ccccc1 [PBA, 4-phenyl-n-butyric acid]",protein level of IFN-γ in blood sera,[1],lower protein levels
same,protein level of MCP-1 in blood sera,[1],lower protein levels
same,protein level of TNF-α in blood sera,[1],lower protein levels
same,"electron microscopy: hypertrophied endoplasmic reticula, cell fragments, damaged mitochondria, destroyed small villi, damaged adjacent tissues","[2]; PBA-treated lacrimal gland and small intestine vs vehicle-treated, FIG. 4-2D",not observed
same,goblet cells in conjunctiva epithelium (PAS staining),"[2]; PBA-treated vs vehicle-injected eye, n=5, P<0.001, FIG. 4-2F, 4-2G",more goblet cells
same,goblet cells in small intestine (PAS staining),"[2]; PBA-treated vs vehicle-injected small intestine, n=3, P<0.001, FIG. 4-2F, 4-2G",more goblet cells
same,conjunctiva epithelium thinning and damage (HE staining),[2]; [4],thinning and damage were observed in the vehicle-treated conjunctiva epithelium in contrast with the PBA-treated conjunctiva epithelium
same,meibomian gland (HE staining),[2]; [4],the meibomian gland of the vehicle-treated eye was decreased and contracted as compared with the PBA-treated meibomian gland
same,infiltration of inflammatory cells (HE staining),"[2]; PBA-treated vs vehicle-treated organs, FIG. 4-1A",inhibited
same,cGVHD-induced systemic fibrosis (Mallory staining),"[2]; PBA-treated vs vehicle-treated organs, FIG. 4-1C",substantially inhibited
same,numbers of inflammatory cells (CD45+ cells),"[2]; PBA-treated vs vehicle-treated organs, immunostaining and counting, n=3, FIG. 4-2E",considerably smaller
same,"skin thickness, fat tissues, density of collagen bundles (HE staining)","[2]; PBA-treated vs vehicle-treated skin, FIG. 4-1A","the vehicle-treated skin became thickened, lost fat tissues, and increased the density of collagen bundles in contrast with the PBA-treated skin"
same,intestinal villi of small and large intestines (HE staining),"[2]; PBA-treated vs vehicle-treated small and large intestines, FIG. 4-1A",not impaired
same,structures of the intestinal and conjunctival mucous membranes (PAS staining),[2]; after systemic injection of PBA,remained intact
same,% survival,"[3]; vs vehicle (PBS), FIG. 2A, n=14, P<0.05",higher survival percentage
same,change in weight,"[3]; vs vehicle, FIG. 2B, n=10, P<0.001",the vehicle-treated mouse group showed larger weight loss as compared with the PBA-treated mouse group
